Assay results as given in patent publication US20150011508A1, “COMPOUNDS AND COMPOSITIONS AS C-KIT KINASE INHIBITORS” (priority 2011, published 2015).

These compounds were tested against T1, c-kit (Homo sapiens, UniProt P10721) (assay: Mo7e cell proliferation assay (SCF dependent proliferation)). Settings: Table 1; human Mo7e cells stimulated with human recombinant SCF, 48 h, CellTiter Glo; 1% FBS (footnote).
T1 construct: human Mo7e cells which endogenously express c-kit; endogenous in cells; host or cells: human Mo7e cells (SCF-dependent promegakaryocytic leukemia line)
T1 sequence (P10721 26-976): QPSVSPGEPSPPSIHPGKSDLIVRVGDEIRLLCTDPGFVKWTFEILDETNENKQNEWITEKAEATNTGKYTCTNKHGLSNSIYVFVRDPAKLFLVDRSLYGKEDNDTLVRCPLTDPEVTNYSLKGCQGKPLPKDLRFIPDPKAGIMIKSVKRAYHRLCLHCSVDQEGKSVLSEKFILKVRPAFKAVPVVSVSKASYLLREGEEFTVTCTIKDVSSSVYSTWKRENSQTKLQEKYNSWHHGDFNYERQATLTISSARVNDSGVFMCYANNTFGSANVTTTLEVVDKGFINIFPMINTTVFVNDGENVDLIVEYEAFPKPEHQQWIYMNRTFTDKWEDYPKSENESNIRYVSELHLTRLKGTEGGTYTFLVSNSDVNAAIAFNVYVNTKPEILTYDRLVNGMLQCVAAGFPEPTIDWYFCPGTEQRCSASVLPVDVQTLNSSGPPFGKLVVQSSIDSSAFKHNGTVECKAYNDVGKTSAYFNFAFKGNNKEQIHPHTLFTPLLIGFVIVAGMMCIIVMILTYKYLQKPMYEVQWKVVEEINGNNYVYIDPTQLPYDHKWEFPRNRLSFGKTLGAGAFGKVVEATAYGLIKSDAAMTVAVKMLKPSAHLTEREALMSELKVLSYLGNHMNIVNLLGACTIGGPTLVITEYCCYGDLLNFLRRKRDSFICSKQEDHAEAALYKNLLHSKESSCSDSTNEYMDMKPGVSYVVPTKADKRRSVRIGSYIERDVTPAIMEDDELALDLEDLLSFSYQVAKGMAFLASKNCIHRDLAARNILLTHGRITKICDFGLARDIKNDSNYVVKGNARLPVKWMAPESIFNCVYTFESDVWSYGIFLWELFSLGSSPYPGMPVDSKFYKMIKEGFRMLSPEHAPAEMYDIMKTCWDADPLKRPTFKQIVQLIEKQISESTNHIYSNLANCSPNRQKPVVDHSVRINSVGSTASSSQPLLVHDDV
Assay type: cell-based
Description: Compounds of Formula (I) and Formula (II) provided herein were assayed to measure their capacity to inhibit c-kit and PDGFR kinases using the appropriate assay described below: c-Kit inhibition was evaluated using the Mo7e cell proliferation assay, and PDGFR inhibition was evaluated using the Rat A10 cell proliferation assay and the Human TGHA-VSMC cell proliferation assay.
The compounds of Table 1 and Table 2 were tested for inhibition of SCF dependent proliferation using human Mo7e cells which endogenously express c-kit in a 384 well format. […] After 48 hours of incubation at 37° C., cell viability was measured by adding 25 uL of CellTiter Glo (Promega) to the cells and the luminescence was measured by a CLIPR CCD camera (Molecular Devices).
The IC50 value is given as that concentration of the test compound in question that provoke a response halfway between the baseline and maximum responses.
Compound `Cc1ccc2ncc(C(=O)Nc3cc(-c4noc(CC[C@](C)(O)C(F)(F)F)n4)ccc3C)n2c1` [F84] has an IC50 of 30 nM.
For `Cc1ccc(-c2noc(CC[C@](C)(O)C(F)(F)F)n2)cc1NC(=O)c1cnc2ccc(F)cn12` [F85], the IC50 was 38 nM.
`Cc1ccc(-c2noc(CC[C@](C)(O)C(F)(F)F)n2)cc1NC(=O)c1cnc2cc(F)ccn12` [F86] showed an IC50 of 43 nM.
`Cc1ccc2ncc(C(=O)Nc3cc(-c4noc(CC[C@@](C)(O)C(F)(F)F)n4)ccc3C)n2c1` [F87] showed an IC50 of 29 nM.
`Cc1ccc(-c2noc(CC[C@@](C)(O)C(F)(F)F)n2)cc1NC(=O)c1cnc2ccc(F)cn12` [F88] showed an IC50 of 42 nM.
`Cc1ccc(-c2noc(CC[C@@](C)(O)C(F)(F)F)n2)cc1NC(=O)c1cnc2cc(F)ccn12` [F89] gave an IC50 of 41 nM.
`COC(C)(CCc1nc(-c2ccc(C)c(NC(=O)c3cnc4cc(C)ccn34)c2)no1)C(F)(F)F` (centres unmarked) [F90] gave an IC50 of 48 nM.
`Cc1nc(C)c(-c2ccc3ncc(C(=O)Nc4cc(-c5noc(COCC(F)(F)F)n5)ccc4C)n3c2)s1` [F91, 6-(2,4-dimethylthiazol-5-yl)-N-(2-methyl-5-(5-((2,2,2-trifluoroethoxy)methyl)-1,2,4-oxadiazol-3-yl)phenyl)imidazo[1,2-a]pyridine-3-carboxamide] was tested, and the IC50 was 6 nM.
With `Cc1nc(-c2ccc(C)c(NC(=O)c3cnc4ccc(-c5cccnc5F)cn34)c2)no1` [F92] the IC50 was 16 nM.
`CNC(=O)c1ccc(-c2ccc3ncc(C(=O)Nc4cc(-c5noc(C)n5)ccc4C)n3c2)cn1` [F93] showed an IC50 of 68 nM.
In the case of `Cc1ccc(-c2noc(COCC(F)F)n2)cc1NC(=O)c1cnc2ccccn12` [F94, N-(5-(5-((2,2-difluoroethoxy)methyl)-1,2,4-oxadiazol-3-yl)-2-methylphenyl)imidazo[1,2-a]pyridine-3-carboxamide], the IC50 is reported as 39 nM.
`Cc1ccc(-c2noc(COC(CF)CF)n2)cc1NC(=O)c1cnc2ccccn12` [F95] gave an IC50 of 28 nM.
For `Cc1ccc(-c2noc(COC(C)C(F)(F)F)n2)cc1NC(=O)c1cnc2ccccn12` (centres unmarked) [F96], the IC50 was 11 nM.
In the case of `Cc1nc(-c2ccc(C)c(NC(=O)c3cnc4ccc(-c5scnc5C)cn34)c2)no1` [F97], the IC50 is reported as 38 nM.
`Cc1ccn2c(C(=O)Nc3cc(-c4noc(CCC(O)C(F)(F)F)n4)ccc3C)cnc2c1` (centres unmarked) [F98] was tested, and the IC50 was 18 nM.
`Cc1ccn2c(C(=O)Nc3cc(-c4noc(C[C@@H](O)C(F)(F)F)n4)ccc3C)cnc2c1` [F99] showed an IC50 of 45 nM.
Work on `Cc1nc(-c2ccc(C)c(NC(=O)c3cnc4ccc(-c5c(C)nn(C)c5C)cn34)c2)no1` [F100] yielded an IC50 of 19 nM.
Compound `Cc1nc(-c2ccc(C)c(NC(=O)c3cnc4ccc(-c5cccn5C)cn34)c2)no1` [F101] has an IC50 of 80 nM.
With `COc1ccncc1-c1ccc2ncc(C(=O)Nc3cc(-c4noc(C)n4)ccc3C)n2c1` [F102] the IC50 was 87 nM.
Work on `Cc1nc(-c2ccc(C)c(NC(=O)c3cnc4ccc(-c5ccnc(N)c5)cn34)c2)no1` [F103] yielded an IC50 of 61 nM.
For `Cc1nc(-c2ccc(C)c(NC(=O)c3cnc4ccc(-c5c(C)n[nH]c5C)cn34)c2)no1` [F104, 6-(3,5-dimethyl-1H-pyrazol-4-yl)-N-(2-methyl-5-(5-methyl-1,2,4-oxadiazol-3-yl)phenyl)imidazo[1,2-a]pyridine-3-carboxamide], the IC50 was 9 nM.
`Cc1nc(-c2ccc(C)c(NC(=O)c3cnc4ccc(-c5c(C)nn(S(C)(=O)=O)c5C)cn34)c2)no1` [F105, 6-(3,5-dimethyl-1-(methylsulfonyl)-1H-pyrazol-4-yl)-N-(2-methyl-5-(5-methyl-1,2,4-oxadiazol-3-yl)phenyl)imidazo[1,2-a]pyridine-3-carboxamide] showed an IC50 of 38 nM.
In the case of `Cc1nc(-c2ccc(C)c(NC(=O)c3cnc4ccc(-c5c(C)nn(CCN6CCOCC6)c5C)cn34)c2)no1` [F106, 6-(3,5-dimethyl-1-(2-morpholinoethyl)-1H-pyrazol-4-yl)-N-(2-methyl-5-(5-methyl-1,2,4-oxadiazol-3-yl)phenyl)imidazo[1,2-a]pyridine-3-carboxamide], the IC50 is reported as 24 nM.

Same assay, conditions: Table 2, values marked *: 20% FBS instead of 1% FBS
Work on `COCc1noc(-c2ccc(C)c(NC(=O)c3cnc4ccccn34)c2)n1` [F108] yielded an IC50 of 716 nM.

Same assay, conditions: Table 2; human Mo7e cells stimulated with human recombinant SCF, 48 h, CellTiter Glo; 1% FBS (footnote)
`Cc1ccc(-c2nc(C(C)C)no2)cc1NC(=O)c1cnc2ccccn12` [F107] was tested, and the IC50 was 119 nM.
Work on `Cc1ccc(-c2noc(C(C)(C)CO)n2)cc1NC(=O)c1cnc2ccccn12` [F109] yielded an IC50 of 682 nM.
`Cc1ccc(-c2noc(CCCS(N)(=O)=O)n2)cc1NC(=O)c1cnc2ccccn12` [F110] gave an IC50 of 367 nM.
`Cc1ccc(-c2noc(CCCNC(=O)OC(C)(C)C)n2)cc1NC(=O)c1cnc2ccccn12` [F111] showed an IC50 of 364 nM.
`Cc1ccc(-c2noc(CCCN)n2)cc1NC(=O)c1cnc2ccccn12` [F112] showed an IC50 of 174 nM.
For `CC(=O)NCCc1nc(-c2ccc(C)c(NC(=O)c3cnc4ccccn34)c2)no1` [F113], the IC50 was 689 nM.
In the case of `Cc1ccc(-c2noc(CCNS(C)(=O)=O)n2)cc1NC(=O)c1cnc2ccccn12` [F114], the IC50 is reported as 409 nM.
Work on `Cc1ccc(-c2noc(CCCNS(C)(=O)=O)n2)cc1NC(=O)c1cnc2ccccn12` [F115] yielded an IC50 of 772 nM.
`Cc1ccc(-c2noc(CCS(N)(=O)=O)n2)cc1NC(=O)c1cnc2ccccn12` [F116] was tested, and the IC50 was 735 nM.
`Cc1ccc(-c2noc(CCC(N)=O)n2)cc1NC(=O)c1cnc2ccccn12` [F117, N-(5-(5-(3-amino-3-oxopropyl)-1,2,4-oxadiazol-3-yl)-2-methylphenyl)imidazo[1,2-a]pyridine-3-carboxamide] was tested, and the IC50 was 803 nM.
`CCNC(=O)CCc1nc(-c2ccc(C)c(NC(=O)c3cnc4ccccn34)c2)no1` [F118] was tested, and the IC50 was 527 nM.
For `Cc1ccc(-c2noc(CCC(C)(C)O)n2)cc1NC(=O)c1cnc2ccccn12` [F119], the IC50 was 112 nM.
`CCOC(=O)NCCc1nc(-c2ccc(C)c(NC(=O)c3cnc4ccccn34)c2)no1` [F120] showed an IC50 of 248 nM.
Work on `Cc1ccc(-c2noc(CCC(C)O)n2)cc1NC(=O)c1cnc2ccccn12` (centres unmarked) [F121] yielded an IC50 of 104 nM.
`COC(=O)NCCc1nc(-c2ccc(C)c(NC(=O)c3cnc4ccccn34)c2)no1` [F122] gave an IC50 of 326 nM.
`COCCOC(=O)NCCc1nc(-c2ccc(C)c(NC(=O)c3cnc4ccccn34)c2)no1` [F123] showed an IC50 of 305 nM.
Compound `Cc1ccc(-c2noc(CO)n2)cc1NC(=O)c1cnc2ccccn12` [F124] has an IC50 of 217 nM.
For `Cc1ccc(-c2noc([C@H](C)N)n2)cc1NC(=O)c1cnc2ccccn12` [F125], the IC50 was 889 nM.
`Cc1ccc(-c2noc([C@@H](C)NC(=O)OC(C)(C)C)n2)cc1NC(=O)c1cnc2ccccn12` [F126] gave an IC50 of 102 nM.
In the case of `Cc1ccc(-c2noc([C@@H](C)N)n2)cc1NC(=O)c1cnc2ccccn12` [F127], the IC50 is reported as 196 nM.
For `COC(=O)NCc1nc(-c2ccc(C)c(NC(=O)c3cnc4ccccn34)c2)no1` [F128], the IC50 was 113 nM.
In the case of `Cc1ccc(-c2noc(CNS(C)(=O)=O)n2)cc1NC(=O)c1cnc2ccccn12` [F129], the IC50 is reported as 124 nM.
In the case of `COCc1nc(-c2ccc(C)c(NC(=O)c3cnc4ccccn34)c2)no1` [F130], the IC50 is reported as 142 nM.
Compound `COCCNC(=O)OCc1nc(-c2ccc(C)c(NC(=O)c3cnc4ccccn34)c2)no1` [F131] has an IC50 of 139 nM.
`COCC(=O)NCc1nc(-c2ccc(C)c(NC(=O)c3cnc4ccccn34)c2)no1` [F132] showed an IC50 of 319 nM.
`CO[C@@H](C)C(=O)NCc1nc(-c2ccc(C)c(NC(=O)c3cnc4ccccn34)c2)no1` [F133] showed an IC50 of 183 nM.
`Cc1ccc(-c2noc(CNC(=O)C(C)(C)O)n2)cc1NC(=O)c1cnc2ccccn12` [F134] was tested, and the IC50 was 173 nM.
`COC(=O)N[C@@H](C)c1nc(-c2ccc(C)c(NC(=O)c3cnc4ccccn34)c2)no1` [F135] gave an IC50 of 166 nM.
Work on `Cc1ccc(-c2noc([C@H](C)NS(C)(=O)=O)n2)cc1NC(=O)c1cnc2ccccn12` [F136] yielded an IC50 of 145 nM.
